pEC50: −log10 of the molar value. Read-outs that look alike come from different tables or passages of the source.
Columns and labels:
primary human T-cells [1] = tested on: primary human T-cells
MV-3 cells = assay: T-cell - TCB - MV3 killing assay (MCSP-TCB, RFP object count by Incucyte); assay type: cell-based, human; conditions: 5 d; for Emax: read-out: MSCP TCB killing MV-3 cells 5 d Emax; for pEC50: primary human T-cells + MCSP-TCB, MV-3 RFP cells, read-out: MSCP TCB killing MV-3 cells 5 d EC50
primary human T-cells [2] = assay: Proliferation assay after 5 days (CellTiter-Glo, CD3 stimulation; PBS counter screen); assay type: cell-based; conditions: CD3 stimulation; for Emax / Emax proliferation (% activation): 5 days, normalized to reference compound A1 as stimulator control = 100%, DMSO neutral control; for Emax: read-out: Emax proliferation (% activation); for pEC50: primary human T-cells, CellTiter-Glo after 5 days, EC50 of fitted sigmoidal curve, read-out: Tcell Proliferation CD3 EC50
Procedure, shortened: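 Cpds added to medium-only plates; 5 d culture. Readout CellTiter-Glo 2.0 (equal vol), RT 45 min equilibration, 15 min rocking RT, luminescence. ATP signal taken as cell number.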

[3] = Homo sapiens, MV-3, 120 h, normalized: MCSP-TCB only = neutral control, 20 μM reference compound A1 = 100%

| pEC50 (primary human T-cells [1]) | Compound | Emax (MV-3 cells; [3]) | pEC50 (MV-3 cells) | Emax (primary human T-cells [2]; Homo sapiens, T-cell, 120 h) | pEC50 (primary human T-cells [2]; Homo sapiens, T-cell, 120 h) | pEC50 (MV-3 cells; Homo sapiens, MV-3, 120 h) | pEC50 (primary human T-cells [2]) | MSCP TCB killing MV-3 cells 5 d Emax (MV-3 cells; normalized: MCSP-TCB only = neutral control, 20 μM reference compound A1 = 100%) | Emax proliferation (% activation) (primary human T-cells [2]) |
| --- | --- | --- | --- | --- | --- | --- | --- | --- | --- |
| 5.72 | COC(F)(c1nc(-c2cc3c(cc2F)[S+]([O-])C[C@H](N)C(=O)N3Cc2ccc(F)cc2)no1)C(F)(F)F (stereo partly drawn) [Example 514, (3R)-3-amino-8-fluoro-5-[(4-fluorophenyl)methyl]-1-oxo-7-[5-(1,2,2,2-tetrafluoro-1-methoxy-ethyl)-1,2,4-oxadiazol-3-yl]-2,3-dihydro-1λ^4,5-benzothiazepin-4-one] | – | – | 105% | 5.71 | – | – | – | – |
| 5.39 | COC(F)(c1nc(-c2cc3c(cc2F)S(=N)(=O)C[C@H](N)C(=O)N3Cc2ccc(Cl)cc2)no1)C(F)(F)F (stereo partly drawn) [Example 515, (3R)-3-amino-5-[(4-chlorophenyl)methyl]-8-fluoro-1-imino-1-oxo-7-[5-(1,2,2,2-tetrafluoro-1-methoxy-ethyl)-1,2,4-oxadiazol-3-yl]-2,3-dihydro-1λ^6,5-benzothiazepin-4-one] | – | – | 63% | 5.31 | – | – | – | – |
| 5.56 | CC(C)(C)c1nc(-c2cc3c(cc2F)S(=N)(=O)C[C@H](N)C(=O)N3Cc2ccc(Cl)cc2)no1 (stereo partly drawn) [Example 516, (3R)-3-amino-7-(5-tert-butyl-1,2,4-oxadiazol-3-yl)-5-[(4-chlorophenyl)methyl]-8-fluoro-1-imino-1-oxo-2,3-dihydro-1λ^6,5-benzothiazepin-4-one] | – | – | 51% | 5.08 | – | – | – | – |
| 5.26 | CN=S1(=O)C[C@H](N)C(=O)N(Cc2ccc(OC(F)(F)F)cc2)c2cc(-c3nnc(C(C)(C)C)o3)c(F)cc21 (stereo partly drawn) [Example 519, (3R)-3-amino-7-(5-tert-butyl-1,3,4-oxadiazol-2-yl)-8-fluoro-1-methylimino-1-oxo-5-[[4-(trifluoromethoxy)phenyl]methyl]-2,3-dihydro-1λ^6,5-benzothiazepin-4-one] | – | – | 72% | 5.36 | – | – | – | – |
| < 5.00 | Cc1cc2c(cc1-c1nnc(C3CN(C)CC(F)(F)C3)o1)N(Cc1ccc(Cl)cc1)C(=O)[C@@H](N)CS2(=O)=O (stereo partly drawn) [Example 524, (3R)-3-amino-5-[(4-chlorophenyl)methyl]-7-[5-(5,5-difluoro-1-methyl-3-piperidyl)-1,3,4-oxadiazol-2-yl]-8-methyl-1,1-dioxo-2,3-dihydro-1λ^6,5-benzothiazepin-4-one] | – | – | 80% | 5.37 | – | – | – | – |
| 5.45 | CCc1ncn(-c2cc3c(cc2F)S(=O)(=O)C[C@H](N)C(=O)N3Cc2ccc(Cl)cc2)n1 [Example 525, (3R)-3-amino-5-[(4-chlorophenyl)methyl]-7-(3-ethyl-1,2,4-triazol-1-yl)-8-fluoro-1,1-dioxo-2,3-dihydro-1λ^6,5-benzothiazepin-4-one] | – | – | 67% | 6.03 | – | – | – | – |
| 6.53 | CC(C)(C)c1cn(-c2cc3c(cc2F)S(=O)(=O)C[C@H](N)C(=O)N3Cc2ccc(Cl)cc2)cn1 [Example 527] | – | – | – | – | – | 5.89 | – | 69 % activation |

Continued, compound first:

| Compound | pEC50 (primary human T-cells [1]) | Emax (MV-3 cells; [3]) | pEC50 (MV-3 cells) | Emax (primary human T-cells [2]; Homo sapiens, T-cell, 120 h) | pEC50 (primary human T-cells [2]; Homo sapiens, T-cell, 120 h) | pEC50 (MV-3 cells; Homo sapiens, MV-3, 120 h) | pEC50 (primary human T-cells [2]) | MSCP TCB killing MV-3 cells 5 d Emax (MV-3 cells; normalized: MCSP-TCB only = neutral control, 20 μM reference compound A1 = 100%) | Emax proliferation (% activation) (primary human T-cells [2]) |
| --- | --- | --- | --- | --- | --- | --- | --- | --- | --- |
| CC(C)(CO)c1noc(-c2cc3c(cc2F)S(=O)(=O)C[C@H](N)C(=O)N3Cc2ccc(Cl)cc2)n1 (racemic) [Example 46] | 6.16 | 83% | 5.98 | 94% | 5.74 | – | – | – | – |
| N[C@H]1C[S+]([O-])c2cc(F)c(-c3noc(N4CCOC5(CC5)C4)n3)cc2N(Cc2ccc(Cl)cc2)C1=O (single isomer, unassigned; epimer a) [Example 211] | 6.10 | 86% | – | – | – | 7.35 | 6.49 | – | – |
| CC(C)(C)c1nnc(-c2cc3c(cc2F)[S+]([O-])C[C@H](N)C(=O)N3Cc2ccc(Cl)cc2)o1 (single isomer, unassigned; epimer b) [Example 187] | 6.23 | – | 5.79 | – | – | – | 5.81 | 57% | 92 % activation |
| CCc1noc(-c2cc3c(cc2F)S(=O)(=O)C[C@H](N)C(=O)N3Cc2ccc(Cl)cc2)n1 [Example 41, (3R)-3-Amino-5-[(4-chlorophenyl)methyl]-7-(3-ethyl-1,2,4-oxadiazol-5-yl)-8-fluoro-1,1-dioxo-2,3-dihydro-1λ^6,5-benzothiazepin-4-one] | – | 92% | 6.64 | 61% | 5.03 | – | – | – | – |
| CC(C)(C)c1nnc(-c2cc3c(cc2F)SC[C@H](N)C(=O)N3Cc2ccc(OC(F)(F)F)cc2)o1 [Example 54, (3R)-3-amino-7-(5-tert-butyl-1,3,4-oxadiazol-2-yl)-8-fluoro-5-[[4-(trifluoromethoxy)phenyl]methyl]-2,3-dihydro-1,5-benzothiazepin-4-one] | – | 123% | – | 116% | 5.95 | 6.52 | – | – | – |
| N[C@H]1CS(=O)(=O)c2cc(F)c(-c3nnc(CC(F)(F)F)o3)cc2N(Cc2ccc(OC(F)(F)F)cc2)C1=O [Example 56, (3R)-3-Amino-8-fluoro-1,1-dioxo-7-[5-(2,2,2-trifluoroethyl)-1,3,4-oxadiazol-2-yl]-5-[[4-(trifluoromethoxy)phenyl]methyl]-2,3-dihydro-1λ^6,5-benzothiazepin-4-one] | – | 123% | 6.96 | 136% | 6.38 | – | – | – | – |
| CC1CN(Cc2nnc(-c3cc4c(cc3F)SC[C@H](N)C(=O)N4Cc3ccc(Cl)cc3)o2)C1 [Example 507, (3R)-3-amino-5-[(4-chlorophenyl)methyl]-8-fluoro-7-[5-[(3-methylazetidin-1-yl)methyl]-1,3,4-oxadiazol-2-yl]-2,3-dihydro-1,5-benzothiazepin-4-one] | 5.09 | – | – | 74% | 5.65 | – | – | – | – |
| CC(C)(C)c1nnc(-c2cc3c(cc2F)S(=O)(=O)C[C@H](N)C(=O)N3Cc2ccc(Cl)cc2)s1 [Example 508, (3R)-3-amino-7-(5-tert-butyl-1,3,4-thiadiazol-2-yl)-5-[(4-chlorophenyl)methyl]-8-fluoro-1,1-dioxo-2,3-dihydro-1λ^6,5-benzothiazepin-4-one] | 6.34 | – | – | 110% | 6.40 | – | – | – | – |
| CC(C)(C)n1nc(-c2cc3c(cc2F)S(=O)(=O)C[C@H](N)C(=O)N3Cc2ccc(Cl)cc2)oc1=O [Example 510, 3-tert-butyl-5-[(3R)-3-amino-5-[(4-chlorophenyl)methyl]-8-fluoro-1,1,4-trioxo-2,3-dihydro-1λ^6,5-benzothiazepin-7-yl]-1,3,4-oxadiazol-2-one] | 7.04 | – | – | 129% | 6.39 | – | – | – | – |
| COC(=O)N1CC2CC(c3nc(-c4cc5c(cc4F)[S+]([O-])C[C@H](N)C(=O)N5Cc4ccc(OC(F)(F)C(F)F)cc4)no3)(C2)C1 (stereo partly drawn) [Example 511, methyl 1-[3-[(3R)-3-amino-8-fluoro-1,4-dioxo-5-[[4-(1,1,2,2-tetrafluoroethoxy)phenyl]methyl]-2,3-dihydro-1λ^4,5-benzothiazepin-7-yl]-1,2,4-oxadiazol-5-yl]-3-azabicyclo[3.1.1]heptane-3-carboxylate] | 5.11 | – | – | 104% | 5.18 | – | – | – | – |
| COC(=O)N1CC2CC(c3nc(-c4cc5c(cc4F)S(=O)(=O)C[C@H](N)C(=O)N5Cc4ccc(OC(F)(F)C(F)F)cc4)no3)(C2)C1 [Example 512, methyl 1-[3-[(3R)-3-amino-8-fluoro-1,1,4-trioxo-5-[[4-(1,1,2,2-tetrafluoroethoxy)phenyl]methyl]-2,3-dihydro-1λ^6,5-benzothiazepin-7-yl]-1,2,4-oxadiazol-5-yl]-3-azabicyclo[3.1.1]heptane-3-carboxylate] | 6.00 | – | – | 162% | – | – | – | – | – |
| COC(F)(c1nc(-c2cc3c(cc2F)S(=O)(=O)C[C@H](N)C(=O)N3Cc2ccc(F)cc2)no1)C(F)(F)F (stereo partly drawn) [Example 513, (3R)-3-amino-8-fluoro-5-[(4-fluorophenyl)methyl]-1,1-dioxo-7-[5-(1,2,2,2-tetrafluoro-1-methoxy-ethyl)-1,2,4-oxadiazol-3-yl]-2,3-dihydro-1λ^6,5-benzothiazepin-4-one] | 6.51 | – | – | 157% | 6.54 | – | – | – | – |
| COC(=O)N1CC2CC(c3nc(-c4cc5c(cc4F)S(=N)(=O)C[C@H](N)C(=O)N5Cc4ccc(OC(F)(F)C(F)F)cc4)no3)(C2)C1 (stereo partly drawn) [Example 520, methyl 1-[3-[(3R)-3-amino-8-fluoro-1-imino-1,4-dioxo-5-[[4-(1,1,2,2-tetrafluoroethoxy)phenyl]methyl]-2,3-dihydro-1λ^6,5-benzothiazepin-7-yl]-1,2,4-oxadiazol-5-yl]-3-azabicyclo[3.1.1]heptane-3-carboxylate] | 5.94 | – | – | 42% | 6.57 | – | – | – | – |
| (3R)-3-amino-5-[(4-chlorophenyl)methyl]-7-[5-(2,2-difluoromorpholin-4-yl)-1,3,4-oxadiazol-2-yl]-1,1-dioxo-2,3-dihydro-1λ^6,5-benzothiazepin-4-one [Example 413] | 5.97 | – | – | – | – | – | 6.71 | – | 160 % activation |
| (3R)-3-amino-7-[5-[4-(chloromethyl)-4-(hydroxymethyl)cyclohexyl]-1,3,4-oxadiazol-2-yl]-5-[(4-chlorophenyl)methyl]-8-fluoro-1,1-dioxo-2,3-dihydro-1λ^6.5-benzothiazepin-4-one [Example 482] | 5.90 | – | – | – | – | – | 6.10 | – | 106 % activation |
